Measurements: patent US12630492B2, “Cannabinoid derivatives” (CANOPY GROWTH CORPORATION, priority 2019, dated 2026)
Like-named read-outs stand apart in the source and are kept apart here.

Columns and labels:
[1] = target: T1, human CB2 receptor (Homo sapiens, UniProt P34972); experiment: CB2 radioligand competitive binding assay ([3H]CP 55,940 displacement); settings: for Selectivity CB2: fold difference between CB1 and CB2 binding, printed in column of receptor with higher affinity, 1.00 in both = same affinity
T1 construct: host or cells: CHO-K1 (Chinese hamster ovary) cells, stably transfected; membranes prepared in house
T1 sequence (P34972 whole entry): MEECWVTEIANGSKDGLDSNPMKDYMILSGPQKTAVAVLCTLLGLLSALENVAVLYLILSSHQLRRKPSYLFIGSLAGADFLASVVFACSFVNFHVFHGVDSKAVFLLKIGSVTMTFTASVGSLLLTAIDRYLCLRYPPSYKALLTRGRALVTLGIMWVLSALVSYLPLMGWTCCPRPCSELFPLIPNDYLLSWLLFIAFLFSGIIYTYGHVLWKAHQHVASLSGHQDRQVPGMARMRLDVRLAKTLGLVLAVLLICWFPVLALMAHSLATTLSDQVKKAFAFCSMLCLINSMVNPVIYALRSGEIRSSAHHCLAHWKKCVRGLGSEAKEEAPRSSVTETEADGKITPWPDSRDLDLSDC

[2] = target: T2, human CB1 receptor (Homo sapiens, UniProt P21554); experiment: CB1 radioligand competitive binding assay ([3H]CP 55,940 displacement); settings: for Selectivity CB1: fold difference between CB1 and CB2 binding, printed in column of receptor with higher affinity, 1.00 in both = same affinity
T2 construct: host or cells: CHO-K1 (Chinese hamster ovary) cells, stably transfected; membranes prepared in house
T2 sequence (P21554 whole entry): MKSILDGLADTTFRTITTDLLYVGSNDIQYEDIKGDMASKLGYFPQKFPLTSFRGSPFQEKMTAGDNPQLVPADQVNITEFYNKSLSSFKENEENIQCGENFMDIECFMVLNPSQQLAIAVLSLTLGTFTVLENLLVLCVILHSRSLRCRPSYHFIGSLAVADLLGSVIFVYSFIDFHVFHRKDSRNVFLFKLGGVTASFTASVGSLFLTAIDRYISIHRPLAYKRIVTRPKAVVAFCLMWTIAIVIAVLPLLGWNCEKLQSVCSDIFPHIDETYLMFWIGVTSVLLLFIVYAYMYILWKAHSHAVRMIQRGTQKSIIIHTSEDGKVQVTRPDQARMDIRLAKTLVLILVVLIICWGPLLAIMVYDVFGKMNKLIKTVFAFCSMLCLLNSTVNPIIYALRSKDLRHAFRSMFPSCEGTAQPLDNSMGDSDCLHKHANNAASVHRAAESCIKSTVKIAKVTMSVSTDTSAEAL

[3] = [3H]CP 55,940 displacement, membranes of CHO-K1 cells expressing human CB2 receptor, read-out: CB2 IC50
[4] = [3H]CP 55,940 displacement, membranes of CHO-K1 cells expressing human CB1 receptor, read-out: CB1 IC50

CCCCCc1cc(OCOCCOC)c(-c2cccc(C)c2)c(OCOCCOC)c1 [2′a, 2,6-bis((2-methoxyethoxy)methoxy)-3′-methyl-4-pentyl-1,1′-biphenyl]
IC50 [1, 3]: 0.05 to 0.99 µM
Selectivity CB2 [1]: 19.73
IC50 [2, 4]: > 10 µM

CCCCCc1cc(OCOCCOC)c(C2C=C(C)CCC2)c(OCOCCOC)c1 (centres unmarked) [2′c, 2′,6′-bis((2-methoxyethoxy)methoxy)-5-methyl-4′-pentyl-1,2,3,4-tetarhydro-1,1′-biphenyl]
IC50 [1, 3]: < 0.05 µM
Selectivity CB2 [1]: 6.38
IC50 [2, 4]: 0.05 to 0.99 µM

C=C(C)C1CCC(C)=CC1c1c(OCOCCOC)cc(CCCCC)cc1OCOCCOC (centres unmarked) [2′d, 2′,6′-bis((2-methoxyethoxy)methoxy)-5-methyl-4′-pentyl-2-(prop-1-en-2-yl)-1,2,3,4-tetrahydro-1,1′-biphenyl]
IC50 [1, 3]: 0.05 to 0.99 µM
Selectivity CB2 [1]: 2.50
IC50 [2, 4]: 1 to 9.99 µM

CCCCCc1cc(OCOC(=O)C(C)(C)C)c(-c2cccc(C)c2)c(OCOC(=O)C(C)(C)C)c1 [8′a, [3-(2,2-dimethylpropanoyloxymethoxy)-2-(m-tolyl)-5-pentyl-phenoxy]methyl 2,2-dimethylpropanoate]
IC50 [1, 3]: 0.05 to 0.99 µM
Selectivity CB2 [1]: 7.14
IC50 [2, 4]: 0.05 to 0.99 µM

CCCCCc1cc(OCOC(=O)C(C)(C)C)c(C2C=C(C)CCC2)c(OCOC(=O)C(C)(C)C)c1 (centres unmarked) [8′c, ((5′-methyl-4-pentyl-1′,2′,3′,4′-tetrahydro-[1,1′-biphenyl]-2,6-diyl)bis(oxy))bis(methylene)bis(2,2-dimethylpropanoate)]
IC50 [1, 3]: < 0.05 µM
Selectivity CB2 [1]: 6.38
IC50 [2, 4]: 0.05 to 0.99 µM

C=C(C)C1CCC(C)=CC1c1c(OCOC(=O)C(C)(C)C)cc(CCCCC)cc1OCOC(=O)C(C)(C)C (centres unmarked) [8′d, ((5′-methyl-4-pentyl-2′-(prop-1-en-2-yl)-1′,2′,3′,4′-tetrahydro-[1,1′-biphenyl]-2,6-diyl)bis(oxy))bis(methylene) bis(2,2-dimethylpropanoate)]
IC50 [1, 3]: 1 to 9.99 µM
Selectivity CB2 [1]: 2.00
IC50 [2, 4]: 1 to 9.99 µM

CCCCCc1cc(OCN(C(=O)OC)c2ccccc2)c(-c2cccc(C)c2)c(OCN(C(=O)OC)c2ccccc2)c1 [14′a, dimethyl (((3′-methyl-4-pentyl-[1,1′-biphenyl]-2,6-diyl)bis(oxy))bis(methylene))bis(phenylcarbamate)]
IC50 [1, 3]: 0.05 to 0.99 µM
Selectivity CB2 [1]: 4.40
IC50 [2, 4]: 0.05 to 0.99 µM

CCCCCc1cc(OCN(C(=O)OC)c2ccccc2)c(C2C=C(C)CCC2)c(OCN(C(=O)OC)c2ccccc2)c1 (centres unmarked) [14′c, dimethyl (((5′-methyl-4-pentyl-1′,2′,3′,4′-tetrahydro-[1,1′-biphenyl]-2,6-diyl)bis(oxy))bis(methylene))bis(phenylcarbamate)]
IC50 [1, 3]: 0.05 to 0.99 µM
Selectivity CB2 [1]: 62.50
IC50 [2, 4]: 1 to 9.99 µM

CCCCCc1cc(OCOCC)c(-c2cccc(C)c2)c(OCOCC)c1 [17′a, 2,6-bis(ethoxymethoxy)-3′-methyl-4-pentyl-1,1′-biphenyl]
IC50 [1, 3]: 0.05 to 0.99 µM
Selectivity CB2 [1]: 8.97
IC50 [2, 4]: 1 to 9.99 µM

CCCCCc1cc(OCOCC)c(C2C=C(C)CCC2)c(OCOCC)c1 (centres unmarked) [17′c, 2′,6′-bis(ethoxymethoxy)-5-methyl-4′-pentyl-1,2,3,4-tetrahydro-1,1′-biphenyl]
IC50 [2, 4]: 1 to 9.99 µM

C=C(C)C1CCC(C)=CC1c1c(OCOCC)cc(CCCCC)cc1OCOCC (centres unmarked) [17′d, 2′,6′-bis(ethoxymethoxy)-5-methyl-4′-pentyl-2-(prop-1-en-2-yl)-1,2,3,4-tetrahydro-1,1′-biphenyl]
IC50 [1, 3]: 0.05 to 0.99 µM
Selectivity CB2 [1]: 3.03
IC50 [2, 4]: 1 to 9.99 µM

C=C(C)C1CCC(C)=CC1c1c(OCOC2CCCCC2)cc(CCCCC)cc1OCOC1CCCCC1 (centres unmarked) [18′d, 2′,6′-bis((cyclohexyloxy)methoxy)-5-methyl-4′-pentyl-2-(prop-1-en-2-yl)-1,2,3,4-tetrahydro-1,1′-biphenyl]
IC50 [1, 3]: > 10 µM
Selectivity CB2 [1]: 1.00
IC50 [2, 4]: > 10 µM
Selectivity CB1 [2]: 1.00

C=C(C)C1CCC(C)=CC1c1c(OCOCC)cc(C(C)(C)CCCCCC)cc1OCOCC (centres unmarked) [19′d, 2′,6′-bis(ethoxymethoxy)-5-methyl-4′-(2-methyloctan-2-yl)-2-(prop-1-en-2-yl)-1,2,3,4-tetrahydro-1,1′-biphenyl]
IC50 [1, 3]: 1 to 9.99 µM
Selectivity CB2 [1]: 2.00
IC50 [2, 4]: 1 to 9.99 µM

C=C(C)C1CCC(C)=CC1c1c(OCN(C(=O)OC)c2ccccc2)cc(C(C)(C)CCCCCC)cc1OCN(C(=O)OC)c1ccccc1 (centres unmarked) [20′d, dimethyl (((5′-methyl-4-(2-methyloctan-2-yl)-2′-(prop-1-en-2-yl)-1′,2′,3′,4′-tetrahydro-[1,1′-biphenyl]-2,6-diyl)bis(oxy))bis(methylene))bis(phenylcarbamate)]
IC50 [1, 3]: 1 to 9.99 µM
Selectivity CB2 [1]: 1.25
IC50 [2, 4]: > 10 µM

C=C(C)C1CCC(C)=CC1c1c(OCOC(=O)C(C)(C)C)cc(C(C)(C)CCCCCC)cc1OCOC(=O)C(C)(C)C (centres unmarked) [21′d, ((5′-methyl-4-(2-methyloctan-2-yl)-2′-(prop-1-en-2-yl)-1′,2′,3′,4′-tetrahydro-[1,1′-biphenyl]-2,6-diyl)bis(oxy))bis(methylene) bis(2,2-dimethylpropanoate)]
IC50 [1, 3]: 1 to 9.99 µM
Selectivity CB2 [1]: 13.33
IC50 [2, 4]: > 10 µM

CCCCCc1cc(O)c(-c2cccc(C)c2)c(OCOCCOC)c1 [Compound 2a, 6-((2-methoxyethoxy)methoxy)-3′-methyl-4-pentyl-[1,1′-biphenyl]-2-ol]
IC50 [1, 3]: 0.05 to 0.99 µM
Selectivity CB2 [1]: 11.11
IC50 [2, 4]: 1 to 9.99 µM

CCCCCc1cc(O)c(C2C=C(C)CCC2)c(OCOCCOC)c1 (centres unmarked) [Compound 2c, 6-((2-methoxyethoxy)methoxy)-5′-methyl-4-pentyl-1′,2′,3′,4′-tetrahydro-[1,1′-biphenyl]-2-ol]
IC50 [1, 3]: 0.05 to 0.99 µM
Selectivity CB2 [1]: 13.33
IC50 [2, 4]: 1 to 9.99 µM

C=C(C)C1CCC(C)=CC1c1c(O)cc(CCCCC)cc1OCOCCOC (centres unmarked) [Compound 2d, 6-((2-methoxyethoxy)methoxy)-5′-methyl-4-pentyl-2′-(prop-1-en-2-yl)-1′,2′,3′,4′-tetrahydro-[1,1′-biphenyl]-2-ol]
IC50 [1, 3]: 1 to 9.99 µM
Selectivity CB2 [1]: 1.59
IC50 [2, 4]: 1 to 9.99 µM

CCCCCc1cc(O)c(-c2cccc(C)c2)c(OCOC(=O)OCC)c1 [Compound 5a, ethyl [3-hydroxy-2-(m-tolyl)-5-pentyl-phenoxy]methyl carbonate]
IC50 [1]: 0.05 to 0.99 µM
Selectivity CB2 [1]: 7.89
IC50 [2]: 1 to 9.99 µM

CCCCCc1cc(O)c(C2C=C(C)CCC2)c(OCOC(=O)OCC)c1 (centres unmarked) [Compound 5c, ethyl (((6-hydroxy-5′-methyl-4-pentyl-1′,2′,3′,4′-tetrahydro-[1,1′-biphenyl]-2-yl)oxy)methyl) carbonate]
IC50 [1, 3]: 0.05 to 0.99 µM
Selectivity CB2 [1]: 9.09
IC50 [2, 4]: 1 to 9.99 µM

C=C(C)[C@@H]1CCC(C)=C[C@H]1c1c(O)cc(CCCCC)cc1OCOC(=O)OCC [Compound 5d, ethyl (((6-hydroxy-5′-methyl-4-pentyl-2′-(prop-1-en-2-yl)-1′,2′,3′,4′-tetrahydro-[1,1′-biphenyl]-2-yl)oxy)methyl) carbonate]
IC50 [1]: 1 to 9.99 µM
Selectivity CB2 [1]: 2.00
IC50 [2]: 1 to 9.99 µM

CCCCCc1cc(O)c(-c2cccc(C)c2)c(OCOC(=O)C(C)(C)C)c1 [Compound 8a, [3-hydroxy-2-(m-tolyl)-5-pentyl-phenoxy]methyl 2,2-dimethylpropanoate]
IC50 [1, 3]: < 0.05 µM
Selectivity CB2 [1]: 9.39
IC50 [2, 4]: 0.05 to 0.99 µM

CCCCCc1cc(O)c(C2C=C(C)CCC2)c(OCOC(=O)C(C)(C)C)c1 (centres unmarked) [Compound 8c, ((6-hydroxy-5′-methyl-4-pentyl-1′,2′,3′,4′-tetrahydro-[1,1′-biphenyl]-2-yl)oxy)methyl pivalate]
IC50 [1, 3]: < 0.05 µM
Selectivity CB2 [1]: 8.85
IC50 [2, 4]: 0.05 to 0.99 µM

C=C(C)C1CCC(C)=CC1c1c(O)cc(CCCCC)cc1OCOC(=O)C(C)(C)C (centres unmarked) [Compound 8d, ((6-hydroxy-5′-methyl-4-pentyl-2′-(prop-1-en-2-yl)-1′,2′,3′,4′-tetrahydro-[1,1′-biphenyl]-2-yl)oxy)methyl pivalate]
IC50 [1, 3]: 0.05 to 0.99 µM
Selectivity CB2 [1]: 1.76
IC50 [2, 4]: 0.05 to 0.99 µM

CCCCCc1cc(O)c(-c2cccc(C)c2)c(OCN(C(=O)OC)c2ccccc2)c1 [Compound 14a, methyl (((6-hydroxy-3′-methyl-4-pentyl-[1,1′-biphenyl]-2-yl)oxy)methyl)(phenyl)carbamate]
IC50 [1, 3]: 0.05 to 0.99 µM
Selectivity CB2 [1]: 9.84
IC50 [2, 4]: 1 to 9.99 µM

CCCCCc1cc(O)c(C2C=C(C)CCC2)c(OCN(C(=O)OC)c2ccccc2)c1 (centres unmarked) [Compound 14c, methyl (((6-hydroxy-5′-methyl-4-pentyl-1′,2′,3′,4′-tetrahydro-[1,1′-biphenyl]-2-yl)oxy)methyl)(phenyl)carbamate]
IC50 [1, 3]: 1 to 9.99 µM
IC50 [2, 4]: 1 to 9.99 µM
Selectivity CB1 [2]: 1.36

C=C(C)[C@@H]1CCC(C)=C[C@H]1c1c(O)cc(CCCCC)cc1OCN(C(=O)OC)c1ccccc1 [Compound 14d, methyl (((6-hydroxy-5′-methyl-4-pentyl-2′-(prop-1-en-2-yl)-1′,2′,3′,4′-tetrahydro-[1,1′-biphenyl]-2-yl)oxy)methyl)(phenyl)carbamate]
IC50 [1]: 0.05 to 0.99 µM
IC50 [2]: 0.05 to 0.99 µM
Selectivity CB1 [2]: 2.53

CCCCCc1cc(O)c(-c2cccc(C)c2)c(OCOCC)c1 [Compound 17a, 6-(ethoxymethoxy)-3′-methyl-4-pentyl-[1,1′-biphenyl]2-ol]
IC50 [1, 3]: 1 to 9.99 µM
Selectivity CB2 [1]: 5.20
IC50 [2, 4]: 1 to 9.99 µM

CCCCCc1cc(O)c(C2C=C(C)CCC2)c(OCOCC)c1 (centres unmarked) [Compound 17c, 6-(ethoxymethoxy)-5′-methyl-4-pentyl-1′,2′,3′,4′-tetrahydro-[1,1′-biphenyl]-2-ol]
IC50 [1, 3]: 0.05 to 0.99 µM
Selectivity CB2 [1]: 2.47
IC50 [2, 4]: 1 to 9.99 µM

C=C(C)C1CCC(C)=CC1c1c(O)cc(CCCCC)cc1OCOCC (centres unmarked) [Compound 17d, 6-(ethoxymethoxy)-5′-methyl-4-pentyl-2′-(prop-1-en-2-yl)-1′,2′,3′,4′-tetrahydro-[1,1′-biphenyl]-2-ol]
IC50 [1, 3]: 0.05 to 0.99 µM
Selectivity CB2 [1]: 1.53
IC50 [2, 4]: 1 to 9.99 µM
